The text below walks through data of patent publication US8541607B2, “Disulfide, sulfide, sulfoxide, and sulfone derivatives of cyclic sugars and uses thereof” (Lacer, S.A., priority 2003, dated 2013).

Assay [1] deals with Rats, left carotid artery thrombosis (FeCl3). Description: In vivo synergistic antithrombotic effect, FeCl3 carotid artery thrombosis, single drugs and combinations. More on the design: species or system rat. Particulars: Compound 12 22.3 mg/Kg, oral, acute the day of study. As for the experimental part:
The method used is substantially the same as described by Kurz (Kurz K. D., at al., Thromb. Res. 1990, 60: 269-280) and modified by Feuerstein (Feuerstein G. Z., et al., Artherioscler, Thromb. Vasc. Biol. 1999, 19: 2554-25562). […]
Forty-five minutes after dosing administration, rats were anaesthetized with sodium pentobarbital (40 mg/kg, i.p.) and they were placed later dorsally on a heated (37° C.) surgical board.
The left carotid artery was isolated and a Parafilm M sheet (7×20 mm, American National Can) was placed under it. An electromagnetic sounding of flow (Transonic Systems Inc.) was placed on the artery to measure blood flow.
Sixty minutes after product administration, a paper patch saturated with FeCl3 solution (70%) was placed (and not removed for the whole duration of the experiment) on the left carotid artery downstream from the sounding of flow to initiate thrombosis. The blood flow was controlled during the 60 min later to the application of the patch in the artery.
The vessel was considered totally occluded by the thrombus formed when no blood flow was detected (0.0 ml/min). In this model, occlusive thrombus formation usually takes place within 15 to 20 minutes in non-treated animals.
The fractional product concept was used to identify synergy between the compounds. In accordance with this concept, if we consider the full protection of the animal as:
[formula] where A is the rate of animals with thrombotic occlusion in treated group; and B is the rate of animals with thrombotic occlusion in the control group.
For two drugs that act of independent way:
[formula] where A1 is the rate of animals with thrombotic occlusion in the treatment group A1; A2 is the rate of animals with thrombotic occlusion in the treatment group A2; and B is the rate of animals with thrombotic occlusion in the control group
If the protection obtained with the combination of the drugs is higher than the fractional inhibition for two compounds acting independently then synergism is considered to occur.
The results are shown in table 14 and are expressed as rate of animals with thrombotic occlusion in each group.

Assay [2] concerns New Zealand White rabbits fed 1% cholesterol diet. In words: Atherogenesis in rabbits fed on high cholesterol diet. The format is in vivo, rabbit. As for the experimental part:
The method used is substantially the same as described in Shore B, Shore V., In: Day CE (ed) Atherosclerosis Drug Discovery, Plenum Press, New York and London, pp 123-141, 1976.
Twenty-one male New Zealand White rabbits (10 weeks old at the beginning of the protocol) were maintained under standardized conditions (22° C., 40% to 60% humidity) with regular day/night cycle and free access to water. The animals were randomly assigned to 1 of 3 groups. Group 1 (n=5) received standard maintenance diet for 75 days; group 2 (n=16) received the same diet but supplemented with 1% (wt/wt) cholesterol for 45 days. At the end of this period, group 2 was classified into two randomly groups. The treated-group (n=9) receiving for additional 30 days 1.9 mg/kg/day of compound 12 (maintaining the 1% cholesterol in its diet), and the non-treated group (n=[…]) receiving a diet with a 1% of cholesterol for additional 30 days.
Study variables included triglycerides and total cholesterol. Animals were euthanized on day 75 after the start of the protocol with pentobarbital i.v. The entire aorta was removed 1 or 2 cm into the iliac arteries and fixed in buffer phosphate 0.1 M (pH 7.4) with glutaraldehyde (4%). Macroscopic and microscopic analyses of the samples were performed in a blinded fashion. Aortas were dissected and stained with Red Oil. Adventitial fat was removed, and aortas were opened longitudinally, immersed in Red Oil solution for overnight, washed in propylenglycol and fixed onto a flat surface. Images of the aortas were taken with a standard camera. Subsequently, 3 sections were taken from the aortic arch area, the thoracic aorta, and at the abdominal aorta (renal orifices). Sections were paraffin-embedded, were cut with a microtome Ultracut (Spain) and stained conventionally with hematosiline eosin. Images of aortas stained with Red Oil and hematosiline eosin were taken with a standard camera. Images were imported into Photoshop (Adobe) with a AGFA slide scanner. By means of the procedure previously described by Lillie RD (Lillie, R. D., 1994, Stain Technology, vol. 19, pp 55) the surface of injury in all the aorta and the thickness of the intima in histological samples was determined. The surface or area of the atherosclerotic injury (evaluated from the stained aortas with the Red Oil) are determined by the number of pixels of the image turned to mm^2. The intima thickness of the arteria (evaluated from the stained histological samples with Haematosiline-Eosin) was quantified in mm in a similar way to that described the surface or area of the atherosclerotic injury. For it, the sections that contained injuries of fatty striae were selected and the thickness of the intima was determined (from the arterial media to endothelium). The mean thickness of the lesion area was assessed in representative sections per aortic quadrant, and the statistical mean was calculated.

In assay [3] the test system is heart (AVP-induced coronary vasoconstriction). In words: In vivo protection against ischemia-reperfusion damage in the heart (arginine-vasopressin induced S-wave depression). To be noted: p.o.; for S-wave decrement: 1 h before AVP 0.3 U/kg, vehicle 46.2 ± 4.9. As for the experimental part: Experiments were performed according to the model previously described by Hirata Y at al (Journal of Cardiovascular Pharmacology, 1998, 31: 322-326)
After a food fasting period of 6 hours, animals were divided into groups of at least 8 animals each. Doses of products were given by oral sounding 1 h before the ischemia induction. Animals were anaesthetized with pentobarbital (40 mg/kg, i.p.) and the standard limb lead II electrocardiogram was recorded to detect the S-wave depression. 0.3 U/kg arginine-vasopressin (AVP) (Sigma Chemicals, St Louis, Mo., USA) was injected into the carotid artery to induce vasoconstriction of small coronary arteries and increase in coronary resistance. In all the groups received AVP 60 min after, the test drug. In all groups, after AVP injection of 10 minutes ECG recording was performed.
The results are shown in table 16 and are expressed as S-wave decrements (μvolts).

Setting [4] is: 1.9 mg/kg/day for 30 days, 1% cholesterol diet, end, mean ± s.e.m.
Where [5] appears, read: treated group, basal, mean ± s.e.m.

On to `CC(=O)S[C@H]1CO[C@H]2[C@@H]1OC[C@H]2O[N+](=O)[O-]` [(12), 2-acetylthio-isosorbide-5-mononitrate], for which the “% of animals protected” value in assay [1] was “(50%)”. In addition, in assay [1] (control 1), the “Rate of animals with thrombotic occlusion” value came out at 0.5. Further, in assay [2] (setting [4]), the “Plasmatic Total cholesterol, End” value was determined as 1461 ± 147 mg/dL and the “Plasmatic Triglycerides, End” value was determined as 347 ± 82 mg/dL. For the same compound, the “influence upon lipid metabolism (plasma lipids vs control)” value in assay [2] (1.9 mg/kg/day for 30 days, in words) is “did not influence upon lipid metabolism”. Further, in assay [2] (setting [5]), the “Plasmatic Total cholesterol, Basal” value was 33.3 ± 4.1 mg/dL and the “Plasmatic Triglycerides, Basal” value was 121 ± 34 mg/dL. In assay [3] (20 mg/kg), the “Protection of S-wave decrement” value was determined as 52% and the S-wave decrement was determined as 22.6 ± 5.9 μV. Further, in assay [3] (100 mg/kg), the “Protection of S-wave decrement” value was 81% and the S-wave decrement is 8.6 ± 2.8 μV.
